Experimental data: US8518913B2, “Phosphorous derivatives as chemokine receptor modulators” (Allergan, Inc., priority 2010, dated 2013)
Where two headings read alike, the source gives them in different places.

Target: T1, CCR2 receptor (Homo sapiens, UniProt P41597)
T1 construct: expressed in transfected cells
Assay: CCR2 calcium activity assay on FLIPR Tetra in HEK-Gqi5 cells stably expressing CCR2
Type: cell-based
Protocol: HEK-Gqi5 cells stably expressing CCR2 were cultured in (DMEM high glucose, 10% FBS, 1% PSA, 400 μg/ml geneticin and 50 μg/ml hygromycin. Appropriate positive control chemokines (MCP-1, MIP1A or RANTES) was used as the positive control agonist for screening compound-induced calcium activity assayed on the FLIPR^Tetra. The drug plates were prepared in 384-well microplates using the EP3 and the MultiPROBE robotic liquid handling systems. Compounds were synthesized and tested for CCR2 activity.

[1] = HEK-Gqi5 cells stably expressing CCR2, calcium activity, FLIPR Tetra
[2] = HEK-Gqi5 cells stably expressing CCR2, calcium activity, FLIPR Tetra, read-out: CCR2 IC50

T1 sequence (P41597 whole entry): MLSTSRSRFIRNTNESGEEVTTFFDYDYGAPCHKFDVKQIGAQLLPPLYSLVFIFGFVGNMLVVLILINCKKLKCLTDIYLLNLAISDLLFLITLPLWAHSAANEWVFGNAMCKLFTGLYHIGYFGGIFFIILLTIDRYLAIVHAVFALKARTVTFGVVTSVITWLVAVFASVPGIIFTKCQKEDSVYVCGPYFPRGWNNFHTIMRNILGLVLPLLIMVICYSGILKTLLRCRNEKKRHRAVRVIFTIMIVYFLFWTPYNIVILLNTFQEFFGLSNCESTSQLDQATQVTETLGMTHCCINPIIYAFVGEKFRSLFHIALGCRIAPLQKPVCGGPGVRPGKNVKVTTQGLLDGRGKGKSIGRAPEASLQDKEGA

SMILES | CCR2 % ANTAGONISM [1] | IC50 [2] | IC50
CP(C)(=O)c1ccc(Cl)cc1NS(=O)(=O)c1ccc(Cl)c(C(F)(F)F)c1 [Compound 15, 4-Chloro-N-[5-chloro-2-(dimethylphosphoryl)phenyl]-3-(trifluoromethyl)benzenesulfonamide] | 92% | 0.125 µM | –
CCCCOP(=O)(c1ccc(Cl)cc1NS(=O)(=O)c1ccc(Cl)c(C(F)(F)F)c1)N1CCC(=O)CC1 (centres unmarked) [Compound 10, Butyl [4-chloro-2-({[4-chloro-3-(trifluoromethyl)phenyl]sulfonyl}amino)phenyl](4-oxopiperidin-1-yl)phosphinate] | 84% | 0.537 µM | –
CP(=O)(c1ccc(Cl)cc1NS(=O)(=O)c1ccc(Cl)c(C(F)(F)F)c1)N1CCC(=O)CC1 (centres unmarked) [Compound 7, 4-Chloro-N-{5-chloro-2-[methyl(4-oxopiperidin-1-yl)phosphoryl]phenyl}-3-(trifluoromethyl)benzenesulfonamide] | 87% | 0.025 µM | –
CCOP(C)(=O)c1ccc(Cl)cc1NS(=O)(=O)c1ccc(Cl)c(C(F)(F)F)c1 (centres unmarked) [Compound 1, Ethyl [4-chloro-2-({[4-chloro-3-(trifluoromethyl)phenyl]sulfonyl}amino)phenyl]methylphosphinate] | 80% | – | 0.159 µM
CCOP(=O)(c1ccc(Cl)cc1NS(=O)(=O)c1ccc(Cl)c(C(F)(F)F)c1)N1CCOCC1 (centres unmarked) [Compound 11, Ethyl [4-chloro-2-({[4-chloro-3-(trifluoromethyl)phenyl]sulfonyl}amino)phenyl]morpholin-4-ylphosphinate] | 65% | 0.15 µM | –
CP(=O)(c1ccc(Cl)cc1NS(=O)(=O)c1ccc(Cl)c(C(F)(F)F)c1)N1CCOCC1 (centres unmarked) [Compound 6, 4-Chloro-N-{5-chloro-2-[methyl(morpholin-4-yl)phosphoryl]phenyl}-3-(trifluoromethyl)benzenesulfonamide] | 93% | 0.015 µM | –
COP(=O)(c1ccc(Cl)cc1NS(=O)(=O)c1ccc(Cl)c(C(F)(F)F)c1)N1CCC(=O)CC1 (centres unmarked) [Compound 12, Methyl [4-chloro-2-({[4-chloro-3-(trifluoromethyl)phenyl]sulfonyl}amino)phenyl](4-oxopiperidin-1-yl)phosphinate] | 95% | 0.124 µM | –
